Assay results reported in US4429127A, “Quinoline carboxylic acid derivative” (Kyorin Pharmaceutical Co., Ltd., priority 1981, dated 1984).
≈ marks a conversion by molar mass, not a printed value.

How the values were obtained:
Shigella sonnei IID969 = experiment: In vitro antibacterial activity (MIC, agar dilution); assay type: cell-based; settings: inoculum 10^8 cells/ml
Description: (§1) The minimum inhibitory concentration (MIC) of the compound (I) was determined by an agar dilution technique (the standard method of Japan Society of Chemotherapy) against standard strains of gram-positive and gram-negative bacteria.
(§2) Inoculum size: 10^8 cells/ml

S. pneumoniae IID552 = experiment: as above; assay type: cell-based; settings: Streptococcus pneumoniae; S. pneumoniae IID552; inoculum 10^8 cells/ml; read-out: MIC
Description: as §1, §2

S. faecalis IID682 = experiment: as above; assay type: cell-based; settings: Enterococcus faecalis; S. faecalis IID682; inoculum 10^8 cells/ml; read-out: MIC
Description: as §1, §2

[1] = system: Streptococcus pyogenes IID692; experiment: as above; assay type: cell-based; settings: Streptococcus pyogenes IID692; inoculum 10^8 cells/ml; read-out: MIC
Description: as §1, §2

S. pyogenes S-8 = experiment: as above; assay type: cell-based; settings: Streptococcus pyogenes, S8; S. pyogenes S-8; inoculum 10^8 cells/ml; read-out: MIC
Description: as §1, §2

[2] = system: Pseudomonas aeruginosa V-1; experiment: as above; assay type: cell-based; settings: V1; Pseudomonas aeruginosa V-1; inoculum 10^8 cells/ml; read-out: MIC
Description: as §1, §2

[3] = system: Staphylococcus aureus 209P; experiment: as above; assay type: cell-based; settings: Staphylococcus aureus 209P; inoculum 10^8 cells/ml; read-out: MIC
Description: as §1, §2

E. coli NIHJ JC-2 = experiment: as above; assay type: cell-based; settings: Escherichia coli, NIHJJC2
Description: as §1, §2

E. coli ATCC10536 = experiment: as above; assay type: cell-based; settings: Escherichia coli, ATCC10536
Description: as §1, §2

[4] = system: Haemophilus influenzae IID986; experiment: as above; assay type: cell-based; settings: Haemophilus influenzae IID986; inoculum 10^8 cells/ml; read-out: MIC
Description: as §1, §2

[5] = system: Klebsiella pneumoniae IFO3512; experiment: as above; assay type: cell-based; settings: Klebsiella pneumoniae, IFO3512
Description: as §1, §2

Proteus vulgaris IFO3167 = experiment: as above; assay type: cell-based; settings: Proteus vulgaris IFO3167; inoculum 10^8 cells/ml; read-out: MIC
Description: as §1, §2

[6] = system: S. aureus IID670 (Terajima); experiment: as above; assay type: cell-based; settings: Staphylococcus aureus; S. aureus IID670 (Terajima); inoculum 10^8 cells/ml; read-out: MIC
Description: as §1, §2

[7] = system: Bacillus subtilis PCI 219; experiment: as above; assay type: cell-based; settings: PCI219; Bacillus subtilis PCI 219; inoculum 10^8 cells/ml; read-out: MIC
Description: as §1, §2

P. aeruginosa IFO12689 = experiment: as above; assay type: cell-based; settings: Pseudomonas aeruginosa; P. aeruginosa IFO12689; inoculum 10^8 cells/ml; read-out: MIC
Description: as §1, §2

[8] = system: Salmonella enteritidis IID604; experiment: as above; assay type: cell-based; settings: Salmonella enterica; Salmonella enteritidis IID604; inoculum 10^8 cells/ml; read-out: MIC
Description: as §1, §2

gram-negative bacteria [9] = experiment: In vitro antibacterial activity against gram-negative bacteria (in words); assay type: cell-based; settings: in vitro
Description: as §1

gram-negative bacteria [10] = settings: background; cited from earlier work
E. coli ML4707 [11] = experiment: In vivo antibacterial activity, systemic infection in mice; set-up: species or system mice (male, ICR); settings: Escherichia coli, ML4707, 168 h; mice, oral at 0 and 4 hrs. after infection; challenge 1.2 × 10^7 cells/animal in saline; 7 days survival; read-out: ED50
Description: (§3) The in vivo antibacterial activity of the compound (I) was determined in systemic infection in mice. The systemic infections were produced in male mice ICR (body weight, 19±2 g) by inoculating intraperitoneally with Staphylococcus aureus Smith and E. coli ML4707. The compounds were administered orally in divided doses at 0 and 4 hrs. after infection. The therapeutic effect of drugs was judged from the number of mice surviving after 7 days of observation. A comparison of in vivo antibacterial activity was made on the basis of the […] effective dose (ED50) calculated by the method of Litchfield and Wilcoxon.

[12] = system: Staphylococcus aureus Smith; experiment: as above; set-up: species or system mice (male, ICR); settings: Staphylococcus aureus, 168 h; mice, oral at 0 and 4 hrs. after infection; challenge 2.4 × 10^5 cells/animal in BHI containing mucin; 7 days survival; read-out: ED50
Description: as §3

gram-positive bacteria [13] = settings: background; cited from earlier work
E. coli ML4707 [14] = experiment: MIC against the infecting strain (Table 2); assay type: cell-based; settings: Escherichia coli, ML4707
Description: as §1

[15] = system: Staphylococcus aureus Smith; experiment: MIC against the infecting strain (Table 2); assay type: cell-based; settings: Staphylococcus aureus Smith; read-out: MIC
Description: as §1

Streptococcus spp. = experiment: In vitro antibacterial activity against Streptococcus spp. (in words); assay type: cell-based
Description: as §1

gram-positive bacteria [16] = experiment: In vitro antibacterial activity against gram-positive bacteria (in words); assay type: cell-based
Description: as §1

Q: Which results are given for `CCn1cc(C(=O)O)c(=O)c2cnc(N3CCNCC3)nc21` [PPA, Pipemidic acid]?
A: MIC (Shigella sonnei IID969): 1.56 µg/mL (≈ 5.14 µM); MIC (S. pneumoniae IID552): > 100 µg/mL; MIC (S. faecalis IID682): > 100 µg/mL; MIC [1]: > 100 µg/mL; MIC (S. pyogenes S-8): > 100 µg/mL; MIC [2]: 12.5 µg/mL (≈ 41.2 µM); MIC [3]: 25 µg/mL (≈ 82.4 µM); MIC (E. coli NIHJ JC-2): 1.56 µg/mL (≈ 5.14 µM); MIC (E. coli ATCC10536): 1.56 µg/mL (≈ 5.14 µM); MIC [4]: 3.13 µg/mL (≈ 10.3 µM); MIC [5]: 1.56 µg/mL (≈ 5.14 µM); MIC (Proteus vulgaris IFO3167): 3.13 µg/mL (≈ 10.3 µM); MIC [6]: 25 µg/mL (≈ 82.4 µM); MIC [7]: 6.25 µg/mL (≈ 20.6 µM); MIC (P. aeruginosa IFO12689): 25 µg/mL (≈ 82.4 µM); MIC [8]: 12.5 µg/mL (≈ 41.2 µM); Antibacterial activity on gram-negative bacteria, in words (gram-negative bacteria [9]): exerted antibacterial activity mainly on gram-negative bacteria; Effectiveness in therapy of infections due to gram-negative bacteria, in words (gram-negative bacteria [10]): highly effective in the therapy of infections due to gram-negative bacteria; ED50 (E. coli ML4707 [11]): 38.9 mg/kg; ED50 [12]: 231 mg/kg; Activity against most gram-positive bacteria, in words (gram-positive bacteria [13]): only weak activities against most gram-positive bacteria; MIC (E. coli ML4707 [14]): 1.56 µg/mL (≈ 5.14 µM); MIC [15]: 12.5 µg/mL (≈ 41.2 µM); Susceptibility of Streptococcus spp., in words (Streptococcus spp.): not susceptible; Antibacterial activity on gram-positive bacteria, in words (gram-positive bacteria [16]): inactive on many strains of gram-positive bacteria

Q: What does the source list for `CCn1cc(C(=O)O)c(=O)c2cnc(N3CCCC3)nc21` [piromidic acid]?
A: Effectiveness in therapy of infections due to gram-negative bacteria, in words (gram-negative bacteria [10]): highly effective in the therapy of infections due to gram-negative bacteria; Activity against most gram-positive bacteria, in words (gram-positive bacteria [13]): only weak activities against most gram-positive bacteria
